Results from US6602908B2, “Suppression of carcinoma using high purity conjugated fatty acid” (priority 1999, dated 2003).

Tests used:
[1] = system: Carcinogenesis; settings: in vivo; cited from earlier work
[2] = system: mammary adenocarcinomas; experiment: Development of mammary tumors in laboratory animals fed dietary CLA; format: in vivo; settings: for reduction in the total number of mammary adenocarcinomas: laboratory animals
Excerpt: The synthetically prepared conjugated linoleic acid (CLA) is an effective agent in inhibiting the development of mammary tumors. Laboratory animals fed a diet comprising 0.5%, 1%, or 1.5% by weight conjugated linoleic acid (CLA) have been seen to have a reduction in the total number of mammary adenocarcinomas, in the range of about 30%, 55%, and 60%, respectively. […] Final tumor incidence and cumulative tumor weights are diminished with the administration of a therapeutically effective amount of the purified conjugated linoleic acid (CLA).

[3] = system: breast cancer; settings: mice; cited from earlier work
[4] = therapeutically effective amount of purified CLA

Row | Compound | effect on Carcinogenesis [1] | inhibition of mammary cancer and protection against subsequent tumor occurrence ([2]; dietary CLA between 0.1 and 0.5% by weight) | reduction in the total number of mammary adenocarcinomas ([2]; diet comprising 0.5% by weight CLA) | reduction in the total number of mammary adenocarcinomas ([2]; diet comprising 1% by weight CLA) | reduction in the total number of mammary adenocarcinomas ([2]; diet comprising 1.5% by weight CLA) | cumulative tumor weights [2, 4] | final tumor incidence [2, 4] | effect on breast cancer [3]
1 | CCCCC/C=C\C/C=C\CCCCCCCC(=O)O [Linoleic acid, 9-cis, 12-cis octadecadienoic acid] | enhance Carcinogenesis | – | – | – | – | – | – | –
2 | conjugated linoleic acid [CLA] | – | dose-dependent inhibition | about 30% | ~55% | ~60% | diminished | diminished | preventive effects
